The values below are quoted from earlier work in patent US11780971B2, “Active yarns and textiles for the stabilization and controlled release of active compounds” (priority 2018, dated 2023).

Where “and” joins values, the source holds several entries; their conditions need not be identical. Equal entries are not always repeated.

This series concerns Staphylococcus aureus strain.

For `C=CCc1ccc(O)c(OC)c1` [eugenol], the “Minimum Inhibitory Concentration (MIC)” value was 625 µg/mL and 662 µg/mL.
